Among the data in US6703421B1, “Methods of using phenylmethylbenzoquinone and hydroquinone compounds for treatment of myocarditis, dilated cardiomyopathy and heart failure” (Daiichi Suntory Pharma Co., Ltd., priority 1999, dated 2004) are IC50 values, retold here.

Read-outs that look alike come from different tables or passages of the source.

This assay relates to NF-κB. Description: NF-κB luciferase reporter assay in A549/NF-κBLuc cells. Format: cell-based, human. Conditions: A549/NF-κBLuc, luciferase activity. The method, then: Using lipofectamine (Lifetech Oriental K. K., Tokyo) according to the conventional method, human lung cancer cell line A549 cells (ATCC catalog no. CCL185), which are known to express hiNOS by cytokine stimulation, were co-transfected with pNFκB-Luc, which are plasmid controlled by a NF-κB binding consensus sequence, and pSV2neo (Clontech, U.S.A.), and then A549/NF-κBLuc, the cell that has stably introduced pNFκB-Luc, was selected by adding G418 sulfate (1 mg/ml, Lifetech Oriental K. K.) to the culture medium.
The luciferase activity was measured using the Luciferase Assay System (Promega, U.S.A.).

Where [1] appears, read: Homo sapiens, IL-1β (1 ng/ml) for 4 hours, read-out: IC50 (μM) IL-1 stimulation.

Turning to “2-[5-Methylthieno[2,3-d]pyrimidine-4-yl]aminoindan-5-carboxylic Acid Morpholinamide [Prod. Ex. 221]”, the IC50 (IL-1β (1 ng/ml) for 4 hours, read-out: IC50 (μM) IL-1 stimulation) is 0.051 µM and the IC50 (TNF-α (500 ng/ml) for 4 hours, read-out: IC50 (μM) TNF stimulation) is 0.089 µM. As for `COC1=C(OC)C(=O)C(Cc2ccc(CCC(=O)N3CCOCC3)cc2)=C(C)C1=O` [Prod. Ex. 3, N-[3-[4-(5,6-Dimethoxy-3-methyl-1,4-benzoquinon-2-ylmethyl)phenyl]propionyl]morpholine], the IC50 under setting [1] was determined as 29 µM. Consider `COC1=C(OC)C(=O)C(Cc2ccc(CCC(=O)NC(C)C)cc2)=C(C)C1=O` [Prod. Ex. 9, N-[3-[4-(5,6-Dimethoxy-3-methyl-1,4-benzoquinon-2-ylmethyl)phenyl]propionyl]isopropylamine], for which the IC50 stood at 3 µM under setting [1] and 4 µM (Homo sapiens, TNF-α (500 ng/ml) for 4 hours, read-out: IC50 (μM) TNF stimulation). For the compound `COC1=C(OC)C(=O)C(Cc2ccc(C(=O)NC(C)C)cc2)=C(C)C1=O` [Prod. Ex. 23, N-[4-(5,6-Dimethoxy-3-methyl-1,4-benzoquinon-2-ylmethyl)benzoyl]isopropylamine], under setting [1], the IC50 was found to be 42 µM.

As to `COC1=C(OC)C(=O)C(Cc2ccc(CCCC(=O)N3CCOCC3)cc2)=C(C)C1=O` [Prod. Ex. 27, N-[4-[4-(5,6-Dimethoxy-3-methyl-1,4-benzoquinon-2-ylmethyl)phenyl]butanoyl]morpholine], the IC50 under setting [1] came to 15 µM. In the case of `COC1=C(OC)C(=O)C(Cc2ccc(CCCC(=O)N3CCSCC3)cc2)=C(C)C1=O` [Prod. Ex. 28, N-[4-[4-(5,6-Dimethoxy-3-methyl-1,4-benzoquinon-2-ylmethyl)phenyl]butanoyl]thiomorpholine], the IC50 under setting [1] is 14 µM. As for `COC1=C(OC)C(=O)C(Cc2ccc(CCCC(=O)N3CCCCC3)cc2)=C(C)C1=O` [Prod. Ex. 29, N-[4-[4-(5,6-Dimethoxy-3-methyl-1,4-benzoquinon-2-ylmethyl)phenyl]butanoyl]piperidine], the IC50 under setting [1] stood at 13 µM. Same read-out and setting: the figure for `COC1=C(OC)C(=O)C(Cc2ccc(CCCC(=O)NC(C)C)cc2)=C(C)C1=O` [Prod. Ex. 30, N-[4-[4-(5,6-Dimethoxy-3-methyl-1,4-benzoquinon-2-ylmethyl)phenyl]butanoyl]isopropylamine] is 14 µM; for `COC1=C(OC)C(=O)C(Cc2cccc(CCC(=O)N3CCCCC3)c2)=C(C)C1=O` [Prod. Ex. 32, N-[3-[3-(5,6-Dimethoxy-3-methyl-1,4-benzoquinon-2-ylmethyl)phenyl]propionyl]piperidine] it is 24 µM.

On to `COC1=C(OC)C(=O)C(Cc2cccc(CCC(=O)N3CCSCC3)c2)=C(C)C1=O` [Prod. Ex. 33, N-[3-[3-(5,6-Dimethoxy-3-methyl-1,4-benzoquinon-2-ylmethyl)phenyl]propionyl]thiomorpholine], for which the IC50 under setting [1] worked out at 28 µM. Take `COC1=C(OC)C(=O)C(Cc2cccc(CCC(=O)N3CCOCC3)c2)=C(C)C1=O` [Prod. Ex. 34, N-[3-[3-(5,6-Dimethoxy-3-methyl-1,4-benzoquinon-2-ylmethyl)phenyl]propionyl]morpholine]: the IC50 under setting [1] was 29 µM. As for `COC1=C(OC)C(=O)C(Cc2cccc(CCC(=O)NC(C)C)c2)=C(C)C1=O` [Prod. Ex. 35, N-[3-[3-(5,6-Dimethoxy-3-methyl-1,4-benzoquinon-2-ylmethyl)phenyl]propionyl]isopropylamine], under setting [1], the IC50 came out at 8 µM. The same measure, in the same setting: next, `COC1=C(OC)C(=O)C(Cc2cccc(/C=C/C(=O)N3CCCCC3)c2)=C(C)C1=O` [Prod. Ex. 37, N-[3-[3-(5,6-Dimethoxy-3-methyl-1,4-benzoquinon-2-ylmethyl)phenyl]acryloyl]piperidine]: 49 µM; `COC1=C(OC)C(=O)C(Cc2cccc(/C=C/C(=O)NC(C)C)c2)=C(C)C1=O` [Prod. Ex. 39, N-[3-[3-(5,6-Dimethoxy-3-methyl-1,4-benzoquinon-2-ylmethyl)phenyl]acryloyl]isopropylamine]: 39 µM; `COC1=C(OC)C(=O)C(Cc2cccc(C(=O)NC(C)C)c2)=C(C)C1=O` [Prod. Ex. 42, N-[3-(5,6-Dimethoxy-3-methyl-1,4-benzoquinon-2-ylmethyl)benzoyl]isopropylamine]: 22 µM. The same measure, in the same setting: the figure for `COC1=C(OC)C(=O)C(Cc2cccc(C(=O)N3CCCCC3)c2)=C(C)C1=O` [Prod. Ex. 43, N-[3-(5,6-Dimethoxy-3-methyl-1,4-benzoquinon-2-ylmethyl)benzoyl]piperidine] is 21 µM; for `COC1=C(OC)C(=O)C(Cc2cccc(C(=O)N3CCSCC3)c2)=C(C)C1=O` [Prod. Ex. 45, N-[3-(5,6-Dimethoxy-3-methyl-1,4-benzoquinon-2-ylmethyl)benzoyl]thiomorpholine] it is 17 µM. The same measure, in the same setting: the figure for `CC1=C(C)C(=O)C(Cc2ccc(CCC(=O)NC(C)C)cc2)=C(C)C1=O` [Prod. Ex. 46] is 17 µM; for `CC1=C(C)C(=O)C(Cc2ccc(CCC(=O)N3CCCCC3)cc2)=C(C)C1=O` [Prod. Ex. 47, N-[3-[4-(3,5,6-Trimethyl-1,4-benzoquinon-2-ylmethyl)phenyl]propionyl]piperidine] it is 21 µM; for `CC1=C(C)C(=O)C(Cc2ccc(CCC(=O)N3CCOCC3)cc2)=C(C)C1=O` [Prod. Ex. 48, N-[3-[4-(3,5,6-Trimethyl-1,4-benzoquinon-2-ylmethyl)phenyl]propionyl]morpholine] it is 18 µM.

Consider `CC1=C(C)C(=O)C(Cc2cccc(CCC(=O)NC(C)C)c2)=C(C)C1=O` [Prod. Ex. 49, N-[3-[3-(3,5,6-Trimethyl-1,4-benzoquinon-2-ylmethyl)phenyl]propionyl]isopropylamine], for which the IC50 under setting [1] was 28 µM. With `CC1=C(C)C(=O)C(Cc2cccc(CCC(=O)N3CCCCC3)c2)=C(C)C1=O` [Prod. Ex. 50, N-[3-[3-(3,5,6-Trimethyl-1,4-benzoquinon-2-ylmethyl)phenyl]propionyl]piperidine], the IC50 under setting [1] was 16 µM. The same measure, in the same setting: the figure for `CC1=C(C)C(=O)C(Cc2cccc(CCC(=O)N3CCOCC3)c2)=C(C)C1=O` [Prod. Ex. 51, N-[3-[3-(3,5,6-Trimethyl-1,4-benzoquinon-2-ylmethyl)phenyl]propionyl]morpholine] is 18 µM; for `COC1=C(OC)C(=O)C(Cc2ccc(CC(=O)N3CCOCC3)cc2)=C(C)C1=O` [Prod. Ex. 53, N-[4-(5,6-Dimethoxy-3-methyl-1,4-benzoquinon-2-ylmethyl)phenylacetyl]morpholine] it is 8 µM.

For `COC1=C(OC)C(=O)C(Cc2ccc(CC(=O)N3CCCCC3)cc2)=C(C)C1=O` [Prod. Ex. 54, N-[4-(5,6-Dimethoxy-3-methyl-1,4-benzoquinon-2-ylmethyl)phenylacetyl]piperidine], the IC50 under setting [1] worked out at 5 µM. Turning to `COC1=C(OC)C(=O)C(Cc2ccc(CC(=O)N3CCSCC3)cc2)=C(C)C1=O` [Prod. Ex. 55, N-[4-(5,6-Dimethoxy-3-methyl-1,4-benzoquinon-2-ylmethyl)phenylacetyl]thiomorpholine], under setting [1], the IC50 is 7 µM. In the case of `COC1=C(OC)C(=O)C(Cc2ccc(CC(=O)NC(C)C)cc2)=C(C)C1=O` [Prod. Ex. 56, N-[4-(5,6-Dimethoxy-3-methyl-1,4-benzoquinon-2-ylmethyl)phenylacetyl]isopropylamine], the IC50 under setting [1] was found to be 5 µM.

On to `COC1=C(OC)C(=O)C(Cc2cccc(CC(=O)N3CCCCC3)c2)=C(C)C1=O` [Prod. Ex. 58, N-[3-(5,6-Dimethoxy-3-methyl-1,4-benzoquinon-2-ylmethyl)phenylacetyl]piperidine], for which the IC50 under setting [1] was found to be 13 µM. The same measure, in the same setting: the figure for `COC1=C(OC)C(=O)C(Cc2cccc(CC(=O)N3CCSCC3)c2)=C(C)C1=O` [Prod. Ex. 59, N-[3-(5,6-Dimethoxy-3-methyl-1,4-benzoquinon-2-ylmethyl)phenylacetyl]thiomorpholine] is 12 µM; for `COC1=C(OC)C(=O)C(Cc2cccc(CC(=O)N3CCOCC3)c2)=C(C)C1=O` [Prod. Ex. 60, N-[3-(5,6-Dimethoxy-3-methyl-1,4-benzoquinon-2-ylmethyl)phenylacetyl]morpholine] it is 18 µM; for `COC1=C(OC)C(=O)C(Cc2cccc(CC(=O)NC(C)C)c2)=C(C)C1=O` [Prod. Ex. 61, N-[3-(5,6-Dimethoxy-3-methyl-1,4-benzoquinon-2-ylmethyl)phenylacetyl]isopropylamine] it is 24 µM. Still for that read-out and setting: next, `COC1=C(OC)C(=O)C(Cc2cccc(CCCC(=O)N3CCCCC3)c2)=C(C)C1=O` [Prod. Ex. 63, N-[4-[3-(5,6-Dimethoxy-3-methyl-1,4-benzoquinon-2-ylmethyl)phenyl]butanoyl]piperidine]: 2 µM; `COC1=C(OC)C(=O)C(Cc2cccc(CCCC(=O)N3CCSCC3)c2)=C(C)C1=O` [Prod. Ex. 64, N-[4-[3-(5,6-Dimethoxy-3-methyl-1,4-benzoquinon-2-ylmethyl)phenyl]butanoyl]thiomorpholine]: 5 µM.

With `COC1=C(OC)C(=O)C(Cc2cccc(CCCC(=O)N3CCOCC3)c2)=C(C)C1=O` [Prod. Ex. 65, N-[4-[3-(5,6-Dimethoxy-3-methyl-1,4-benzoquinon-2-ylmethyl)phenyl]butanoyl]morpholine], under setting [1], the IC50 worked out at 12 µM. Take `COC1=C(OC)C(=O)C(Cc2cccc(CCCC(=O)NC(C)C)c2)=C(C)C1=O` [Prod. Ex. 66, N-[4-[3-(5,6-Dimethoxy-3-methyl-1,4-benzoquinon-2-ylmethyl)phenyl]butanoyl]isopropylamine]: the IC50 under setting [1] was determined as 3 µM. The same measure, in the same setting: the figure for `COC1=C(OC)C(=O)C(Cc2ccccc2CCC(=O)N2CCCCC2)=C(C)C1=O` [Prod. Ex. 70, N-[3-[2-(5,6-Dimethoxy-3-methyl-1,4-benzoquinon-2-ylmethyl)phenyl]propionyl]piperidine] is 44 µM.

By IC50 is commonly meant the concentration needed to halve the response being measured.
